In ChEMBL document CHEMBL5120764, “Isarubrolone C Promotes Autophagic Degradation of Virus Proteins via Activating ATG10S in HepG2 Cells” (J Nat Prod, 2022):
Calls of active or inactive are those of the source.

How the values were obtained:
Assay type in all cases: functional, cell-based
HepG2 [1] = test: Induction of autophagy in human HepG2 cells transfected with HCV sub-replicon assessed as decrease in HCV-CORE protein level upto 10 uM and measured after 6 hrs by western blot analysis; settings: DDE = dose-dependent effect
HepG2 [2] = test: Effect on HCV-CORE degradation in human HepG2 cells transfected with HCV sub-replicon at 10 uM pretreated with proteosome inhibitor MG132 for 12 hrs followed by compound addition and measured after 24 hrs by western blot analysis
HepG2 [3] = test: Effect on ZIKV-NS5 degradation in human HepG2 cells transfected with ZIKV-NS5 at 10 uM pretreated with proteosome inhibitor MG132 for 12 hrs followed by compound addition and measured after 24 hrs by western blot analysis
HepG2 [4] = test: Induction of autophagy in human HepG2 cells transfected with HCV subgenomic replicon assessed as HCV-NS5B/LAMP2 combination at 10 uM incubated for 24 hrs in presence of anti-LAMP2 antibodies by co-immunoprecipitation assay
HepG2 [5] = test: Induction of autophagy in human HepG2 cells transfected with HCV subgenomic replicon assessed as HCV-CORE/LAMP2 combination at 10 uM incubated for 24 hrs in presence of anti-LAMP2 antibodies by co-immunoprecipitation assay
HepG2 [6] = test: Induction of autophagy in human HepG2 cells transfected with HCV subgenomic replicon assessed as HCV-NS5B/ATG10/ATG10S combination at 10 uM incubated for 24 hrs in presence of anti-LAMP2 antibodies by co-immunoprecipitation assay
HepG2 [7] = test: Induction of autophagy in human HepG2 cells transfected with HCV subgenomic replicon assessed as HCV-NS5B/LC3B combination at 10 uM incubated for 24 hrs in presence of anti-LAMP2 antibodies by co-immunoprecipitation assay
HepG2 [8] = test: Induction of autophagy in human HepG2 cells transfected with HCV subgenomic replicon assessed as HCV-NS5B/P62 combination at 10 uM incubated for 24 hrs in presence of anti-LAMP2 antibodies by co-immunoprecipitation assay
HepG2 [9] = test: Induction of autophagy in human HepG2 cells transfected with HCV subgenomic replicon assessed as HCV-CORE/P62 combination at 10 uM incubated for 24 hrs in presence of anti-LAMP2 antibodies by co-immunoprecipitation assay
HepG2 [10] = test: Downregulation of HBVx in human HepG2 cells co-transfected with HBVx and ATG10-misMO upto 10 uM incubated for 24 hrs by western blot analysis
HepG2 [11] = test: Downregulation of ZIKV-NS5 in human HepG2 cells co-transfected with ZIKV-NS5 and ATG10-misMO upto 10 uM incubated for 24 hrs by western blot analysis
HepG2 [12] = test: Downregulation of HBVx in human HepG2 cells transfected with HBVx upto 10 uM incubated for 24 hrs by western blot analysis
HepG2 [13] = test: Upregulation of endogenous ATG10S activated co-localisation of HBx with LC3B in human HepG2 cells co-transfected with HBx and ATG10-sMO by cellular immunofluorescence assay
HepG2 [14] = test: Upregulation of endogenous ATG10S activated co-localisation of HIV-RT with LC3B in human HepG2 cells co-transfected with HIV-RT and ATG10-sMO by cellular immunofluorescence assay
HepG2 [15] = test: Upregulation of endogenous ATG10S activated co-localisation of HIV-RT with LC3B in human HepG2 cells co-transfected with HIV-RT and ATG10-misMO by cellular immunofluorescence assay
HepG2 [16] = test: Upregulation of endogenous ATG10S activated co-localisation of HBx with LAMP2 in human HepG2 cells co-transfected with HBx and ATG10-sMO by cellular immunofluorescence assay
HepG2 [17] = test: Upregulation of endogenous ATG10S activated co-localisation of HIV-RT with LAMP2 in human HepG2 cells co-transfected with HIV-RT and ATG10-sMO by cellular immunofluorescence assay
HepG2 [18] = test: Upregulation of endogenous ATG10S activated co-localisation of HBx with LAMP2 in human HepG2 cells co-transfected with HBx and ATG10-misMO by cellular immunofluorescence assay
HepG2 [19] = test: Upregulation of endogenous ATG10S activated co-localisation of HIV-RT with LAMP2 in human HepG2 cells co-transfected with HIV-RT and ATG10-misMO by cellular immunofluorescence assay
HepG2 [20] = test: Induction of autophagy in human HepG2 cells transfected with ZIKV-NS5 assessed as increase in ZIKV-NS5-LC3B interaction level at 10 uM incubated for 24 hrs in presence of anti-Flag antibodies by co-immunoprecipitation assay
HepG2 [21] = test: Upregulation of ATG10/ATG10S mRNA level in human HepG2 cells transfected with HBx upto 10 uM by RT-PCR analysis; settings: DDE = dose-dependent effect

Measured: Activity

CC[C@@H](O)c1nc(C)cc2c1C(=O)c1cc(=O)c3c(c(O)c1-2)O[C@@H]1O[C@H](C)[C@@H](OC)[C@@H](O)[C@]31O
active: HepG2 [1] Dde | HepG2 [2] | HepG2 [3] | HepG2 [4] | HepG2 [5] | HepG2 [6] | HepG2 [7] | HepG2 [8] | HepG2 [9] | HepG2 [10] | HepG2 [11] | HepG2 [12] | HepG2 [13] | HepG2 [14] | HepG2 [15] | HepG2 [16] | HepG2 [17] | HepG2 [18] | HepG2 [19] | HepG2 [20] | HepG2 [21] Dde
